The test system of one assay is CD4 T cells. The assay is described as follows: CD4 T cell differentiation by flow cytometry. The following applies: 72 hours; for naïve CD4 T cell compartment, reduction vs DMSO: trend not found to be significant. The format is cell-based, mouse. The protocol: Lymph nodes and spleen were isolated from wild-type C57BL/6N mice. Tissue was mechanically dissociated with the back of a syringe plunger and passed through a […] filter. […] Treated cells were incubated at 37° C., 5% CO2 for the designed study duration. […] After staining, cells were pelleted, resuspended and run by a BD FACSymphony A3 flow cytometer.

For the next assay, the system named is B16-OVA. Kind of assay: In vivo adoptive cellular transfer, OT-I, B16-OVA tumor. Also on record: species or system mouse. The protocol: C57BL/6N mice were injected with 3×10^5 B16-OVA or B16 subcutaneously in the right flank. Five days after injection, mice were administered 200 μg cyclophosphamide monohydrate (Sigma #C73971G) dissolved in PBS by intraperitoneal injection to induce minor lymphodepletion. 48 hours after lymphodepletion, mice were intravenously adoptively transferred 2.5×10^6 CD8 OT-I or CD8 […] pre-treated ex vivo following the in vitro T cell activation method. Tumor growth rates were determined by tumor volume measurement beginning on day four and continuing three times per week for the study duration. Tumor volumes were determined by the ellipsoid formula: [(Length×Width^2)/2]. At the end of study, tumors were either fixed in 10% formalin or dissociated into a single-cell suspension for flow cytometry. […] Cells were then counted, filtered through a 70 μm cell strainer, and 10×10^6 cells were aliquoted and stained following the immune profiling by flow cytometry method.

For assay [1] the following is noted: interstitial pulmonary fibrosis; cited from earlier work.

Regarding `O=c1nc(OC[C@@H]2COCCO2)cc2n1CCc1cc(C#CC3CC3)ccc1-2` [GLPG1205, 9-Cyclopropylethynyl-2-((S)-1-[1,4]dioxan-2-ylmethoxy)-6,7-dihydropyrimido[6,1-a]isoquinolin-4-one], in the assay with CD4 T cells (3 μM), the “effector/memory CD4 T cells, increase compared to DMSO control” value turned out to be 31.55% and the “naïve CD4 T cell compartment, reduction vs DMSO” value stood at 41.57%. Moreover, in the assay with CD4 T cells (10 μM), the “effector/memory CD4 T cells, increase compared to DMSO control” value was 39.79% and the “naïve CD4 T cell compartment, reduction vs DMSO” value is reported as 45.61%. Besides, in the assay on B16-OVA (T cells pre-treated ex vivo with 10 μM, B16-OVA tumor bearing mice, vs sham and DMSO pre-treated), the “anti-tumor response (tumor volume) after adoptive transfer of pre-treated CD8 OT-I T cells” value is given as “significantly enhanced this anti-tumor effect”. Moreover, in the assay on B16-OVA (T cells pre-treated with 10 μM, sham 20%, DMSO pre-treated 27.6%), the “intratumoral CD8 T cells positive for SIINFEKL tetramer” value is listed as 53.7%. Besides, in assay [1], the “fibrosis, over the standard of care” value was “non-significant reduction in fibrosis”.

Source of the values: patent US20240358705A1, “COMPOSITIONS AND METHODS FOR TREATMENT OF CANCER” (Board of Supervisors of Louisiana State University and …, priority 2021, published 2024).
